This experiment addresses mutant CFTR (Homo sapiens, UniProt P13569). The experiment is described as follows: Fluorescence assay for CFTR activity (halide-sensitive YFP, HS-YFP). The following applies: CFBE41o- and FRT cells with stable expression of mutant CFTR. The format is cell-based. On the procedure:
Mutant CFTR activity was determined with the functional assay based on the halide-sensitive yellow fluorescent protein, HS—YFP (Galietta et al., FEBS Lett 499:220-224, 2001). CFBE41o- and FRT cells with stable expression of mutant CFTR and HS—YFP were plated on clear-bottom 96-well black microplates (Code 3603, Corning Life Sciences) at a density of 50,000 cells/well and kept at 37° C. in 5% CO2 for 24 hours.
For the corrector assay, cells were treated for further 24 hours with test compounds, vehicle (DMSO), or the positive control VX-809. After treatment, the culture medium was removed and cells in each well were stimulated for 30 min at 37° C. with 60 μL PBS (containing 137 mM NaCl, 2.7 mM KCl, 8.1 mM Na2HPO4, 1.5 mM KH2PO4, 1 mM CaCl2, and 0.5 mM MgCl2) plus forskolin (20 μM) and genistein (50 μM).
For determination of potentiator activity on F508del-CFTR, cells were incubated for 24 hours at 27° C. to allow trafficking of the mutant protein to plasma membrane. Cells were then stimulated with for 30 min with PBS containing forskolin (20 μM) plus the compound to be tested at the desired concentration. For determination of potentiator activity on G551D-CFTR or G1349D-CFTR, cells were directly stimulated with forskolin plus test compound without previous incubation at low temperature. At the time of assay, microplates carrying CFBE41o- or FRT cells were transferred to microplate readers (BMG Labtech) equipped with high-quality excitation (HQ500/20×: 500±10 nm) and emission (HQ535/30M: 535±15 nm) filters for YFP (Chroma Technology). The assay consisted of a continuous 14 s fluorescence reading with 2 s before and 12 s after injection of an iodide-containing solution (165 μL of a modified PBS containing I^− instead of Cl^−; final I^− concentration in the well: 100 mM). Data were normalized to the initial background-subtracted fluorescence. Enhanced CFTR activity, induced by correctors and/or potentiators, results in accelerated I^− influx that in turn causes faster HS—YFP quenching (Pedemonte et al., Mol Pharmacol 68:1736-1746, 2005; Pedemonte et al., J Clin Invest 115:2564-2571, […]). To determine fluorescence quenching rate associated with I^− influx, the final 10 s of data for each well were fitted with an exponential function to extrapolate initial slope (dF/dt).
EC50 obtained are illustrated in Table 1 wherein+: EC50>2 μM; ++: 1.0 μM <EC50<2 μM; +++: EC50<1 μM.
mutant CFTR, sequence (P13569 with tags, fused parts or gaps DEL508-508): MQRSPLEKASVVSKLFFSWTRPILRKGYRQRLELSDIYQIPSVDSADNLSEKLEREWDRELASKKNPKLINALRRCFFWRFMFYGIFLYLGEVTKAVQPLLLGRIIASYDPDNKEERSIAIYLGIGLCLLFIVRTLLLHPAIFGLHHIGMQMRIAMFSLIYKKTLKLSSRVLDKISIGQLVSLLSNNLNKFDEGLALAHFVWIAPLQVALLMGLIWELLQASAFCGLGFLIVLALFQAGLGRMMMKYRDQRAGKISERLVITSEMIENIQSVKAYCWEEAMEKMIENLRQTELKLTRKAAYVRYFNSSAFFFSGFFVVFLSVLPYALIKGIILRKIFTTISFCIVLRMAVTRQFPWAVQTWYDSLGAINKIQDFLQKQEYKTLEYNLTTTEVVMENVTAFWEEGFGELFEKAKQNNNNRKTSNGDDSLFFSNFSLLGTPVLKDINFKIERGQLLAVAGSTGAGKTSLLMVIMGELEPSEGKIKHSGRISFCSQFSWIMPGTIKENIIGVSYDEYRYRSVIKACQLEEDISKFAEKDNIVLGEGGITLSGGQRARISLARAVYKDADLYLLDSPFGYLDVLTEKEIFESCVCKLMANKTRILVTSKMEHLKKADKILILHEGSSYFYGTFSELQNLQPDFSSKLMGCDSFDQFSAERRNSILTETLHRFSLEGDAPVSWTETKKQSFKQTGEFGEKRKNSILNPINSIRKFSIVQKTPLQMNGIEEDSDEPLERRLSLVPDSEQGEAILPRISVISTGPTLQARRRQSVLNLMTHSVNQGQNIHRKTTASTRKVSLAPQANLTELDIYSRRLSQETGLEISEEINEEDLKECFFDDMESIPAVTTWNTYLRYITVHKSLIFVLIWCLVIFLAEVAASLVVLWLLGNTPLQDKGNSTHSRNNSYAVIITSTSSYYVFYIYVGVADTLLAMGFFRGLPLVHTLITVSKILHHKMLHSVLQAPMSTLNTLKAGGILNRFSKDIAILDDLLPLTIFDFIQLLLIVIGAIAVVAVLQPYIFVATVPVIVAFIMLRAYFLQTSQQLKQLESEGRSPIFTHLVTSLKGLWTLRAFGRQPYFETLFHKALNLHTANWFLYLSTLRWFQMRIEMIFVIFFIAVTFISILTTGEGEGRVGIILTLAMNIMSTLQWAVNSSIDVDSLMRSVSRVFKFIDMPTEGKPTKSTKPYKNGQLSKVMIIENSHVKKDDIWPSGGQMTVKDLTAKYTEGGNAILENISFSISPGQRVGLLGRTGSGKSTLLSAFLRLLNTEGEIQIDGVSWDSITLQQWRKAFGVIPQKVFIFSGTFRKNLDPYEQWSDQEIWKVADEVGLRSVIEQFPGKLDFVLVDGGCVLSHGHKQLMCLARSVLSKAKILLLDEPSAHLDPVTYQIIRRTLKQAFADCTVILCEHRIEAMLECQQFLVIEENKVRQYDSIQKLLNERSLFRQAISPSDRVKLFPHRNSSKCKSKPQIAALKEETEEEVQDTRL
On to `NC(=O)c1sc2ccccc2c1C1CN(S(=O)(=O)C2CCCCC2)CCO1` (racemic) [compound 016, rac-3-[4-cyclohexylsulfonylmorpholin-2-yl]benzothiophene-2-carboxamide], for which the EC50 (commonly the concentration at which the effect is half-maximal) was > 2 µM. Regarding `NC(=O)c1sc2ccccc2c1C1CN(S(=O)(=O)c2cccc(Br)c2)CCO1` (racemic) [compound 009, rac-3-[4-(3-bromophenyl)sulfonylmorpholin-2-yl]benzothiophene-2-carboxamide], the EC50 is > 2 µM. Then `NC(=O)c1sc2ccccc2c1C1CN(S(=O)(=O)c2ccc(Oc3ccccc3)cc2)CCO1` (racemic) [compound 006, rac-3-[4-(4-phenoxyphenyl)sulfonylmorpholin-2-yl]benzothiophene-2-carboxamide], with < 1 µM; and `Cc1ccc(S(=O)(=O)N2CCOC(c3c(C(N)=O)sc4ccccc34)C2)cc1` (racemic) [compound 033, rac-3-[4-(p-tolylsulfonyl)morpholin-2-yl]benzothiophene-2-carboxamide], with < 1 µM. Regarding `COc1ccc(S(=O)(=O)N2CCOC(c3c(C(N)=O)sc4ccccc34)C2)cc1OC` (racemic) [compound 054, rac-3-[4-(3,4-dimethoxyphenyl)sulfonylmorpholin-2-yl]benzothiophene-2-carboxamide], the EC50 was > 2 µM. Then `CC(C)Oc1ccc(S(=O)(=O)N2CCOC(c3c(C(N)=O)sc4ccccc34)C2)cc1` (racemic) [compound 069, rac-3-[4-(4-isopropoxyphenyl)sulfonylmorpholin-2-yl]benzothiophene-2-carboxamide], with < 1 µM. Consider `Cc1nc(S(=O)(=O)N2CCOC(c3c(C(N)=O)sc4ccccc34)C2)cn1C` (racemic) [compound 002, rac-3-[4-(1,2-dimethylimidazol-4-yl)sulfonylmorpholin-2-yl]benzothiophene-2-carboxamide], for which the EC50 is > 2 µM. Take `COc1ccc(S(=O)(=O)N2CCOC(c3c(C(N)=O)sc4ccccc34)C2)cc1` (racemic) [compound 010, rac-3-[4-(4-methoxyphenyl)sulfonylmorpholin-2-yl]benzothiophene-2-carboxamide]: the EC50 is 1 to 2 µM. Consider `Cc1nc2ccc(S(=O)(=O)N3CCO[C@@H](c4c(C(N)=O)sc5ccccc45)C3)cc2o1` (single isomer, unassigned) [compound 070], for which the EC50 is > 2 µM. For the compound `NC(=O)c1sc2ccccc2c1C1CN(S(=O)(=O)c2ccc(Oc3ccncc3)cc2)CCO1` (racemic) [compound 024, rac-3-[4-[4-(4-pyridyloxy)phenyl]sulfonylmorpholin-2-yl]benzothiophene-2-carboxamide], the EC50 was > 2 µM.

On to `Cc1c(S(=O)(=O)N2CCOC(c3c(C(=O)N(C)C)sc4ccccc34)C2)cnn1C` (stereo not drawn) [compound 079, 3-{4-[(1,5-dimethyl-1H-pyrazol-4-yl)sulfonyl]-2-morpholinyl}-N,N-dimethyl-1-benzothiophene-2-carboxamide], for which the EC50 is > 2 µM.

Take `COc1ccc(Oc2ccc(S(=O)(=O)N3CCOC(c4c(C(N)=O)sc5ccccc45)C3)cc2)cc1` (racemic) [compound 019, rac-3-[4-[4-(4-methoxyphenoxy)phenyl]sulfonylmorpholin-2-yl]benzothiophene-2-carboxamide]: the EC50 is > 2 µM. As to `NC(=O)c1sc2ccccc2c1C1CN(S(=O)(=O)c2ccc(F)cc2)CCO1` (racemic) [compound 022, rac-3-[4-(4-fluorophenyl)sulfonylmorpholin-2-yl]benzothiophene-2-carboxamide], the EC50 is > 2 µM. Consider `Cc1ccc(F)cc1S(=O)(=O)N1CCOC(c2c(C(N)=O)sc3ccccc23)C1` (racemic) [compound 027, rac-3-[4-(5-fluoro-2-methyl-phenyl)sulfonylmorpholin-2-yl]benzothiophene-2-carboxamide], for which the EC50 is > 2 µM. Take `Cc1n[nH]c(C)c1S(=O)(=O)N1CCOC(c2c(C(=O)N(C)C)sc3ccccc23)C1` (stereo not drawn) [compound 083, 3-{4-[(3,5-dimethyl-1H-pyrazol-4-yl)sulfonyl]-2-morpholinyl}-N,N-dimethyl-1-benzothiophene-2-carboxamide]: the EC50 was > 2 µM.

As for `NC(=O)c1sc2ccccc2c1C1CN(S(=O)(=O)c2ccc3ccccc3c2)CCO1` (racemic) [compound 052, rac-3-[4-(2-naphthylsulfonyl)morpholin-2-yl]benzothiophene-2-carboxamide], the EC50 is > 2 µM.

Regarding `COc1ccccc1S(=O)(=O)N1CCOC(c2c(C(N)=O)sc3ccccc23)C1` (racemic) [compound 050, rac-3-[4-(2-methoxyphenyl)sulfonylmorpholin-2-yl]benzothiophene-2-carboxamide], the EC50 is > 2 µM. As for `NC(=O)c1sc2ccccc2c1C1CN(S(=O)(=O)c2c[nH]cn2)CCO1` (racemic) [compound 004, rac-3-[4-(1H-imidazol-4-ylsulfonyl)morpholin-2-yl]benzothiophene-2-carboxamide], the EC50 is > 2 µM. Turning to `CCCCS(=O)(=O)N1CCOC(c2c(C(N)=O)sc3ccccc23)C1` (racemic) [compound 061, rac-3-[4-butylsulfonylmorpholin-2-yl]benzothiophene-2-carboxamide], the EC50 was > 2 µM. Consider `Cc1cc(S(=O)(=O)N2CCO[C@@H](c3c(C(N)=O)sc4ccccc34)C2)ccc1F` (single isomer, unassigned) [compound 014], for which the EC50 was > 2 µM. In the case of `NC(=O)c1sc2ccccc2c1C1CN(S(=O)(=O)c2ccc(S(F)(F)(F)(F)F)cc2)CCO1` (racemic) [compound 060, rac-3-[4-[4-(pentafluoro-lambda6-sulfanyl)phenyl]sulfonylmorpholin-2-yl]benzothiophene-2-carboxamide], the EC50 is 1 to 2 µM.

Consider `Cc1cc(S(=O)(=O)N2CCOC(c3c(C(=O)N(C)C)sc4ccccc34)C2)ccc1F` (racemic) [compound 025, rac-3-[4-(4-fluoro-3-methyl-phenyl)sulfonylmorpholin-2-yl]-N,N-dimethyl-benzothiophene-2-carboxamide], for which the EC50 is > 2 µM. `NC(=O)C1=C(C2CN(S(=O)(=O)c3ccc(C(F)(F)F)c(F)c3)CCO2)c2ccccc2S1(=O)=O` (racemic) [compound 074, rac-1,1-dioxo-3-[4-[3-fluoro-4-(trifluoromethyl)phenyl]sulfonylmorpholin-2-yl]benzothiophene-2-carboxamide]: the 50% effective concentration (EC50) was < 1 µM. With `COCCS(=O)(=O)N1CCOC(c2c(C(N)=O)sc3ccccc23)C1` (racemic) [compound 059, rac-3-[4-(2-methoxyethylsulfonyl)morpholin-2-yl]benzothiophene-2-carboxamide], the EC50 was > 2 µM. Turning to `NC(=O)c1sc2ccccc2c1C1CN(S(=O)(=O)c2ccccc2OC(F)(F)F)CCO1` (racemic) [compound 067, rac-3-[4-[2-(trifluoromethoxy)phenyl]sulfonylmorpholin-2-yl]benzothiophene-2-carboxamide], the EC50 is > 2 µM.

In the case of `NC(=O)c1sc2ccccc2c1C1CN(S(=O)(=O)c2ccc(-c3ccccc3)cc2)CCO1` (racemic) [compound 051, rac-3-[4-(4-phenylphenyl)sulfonylmorpholin-2-yl]benzothiophene-2-carboxamide], the EC50 is < 1 µM.

For the compound `NC(=O)c1sc2ccccc2c1C1CN(S(=O)(=O)c2ccsc2)CCO1` (racemic) [compound 005, rac-3-[4-(3-thienylsulfonyl)morpholin-2-yl]benzothiophene-2-carboxamide], the concentration giving a half-maximal response (EC50) is > 2 µM.

With `NC(=O)c1sc2ccccc2c1C1CN(S(=O)(=O)c2cccc(C(F)(F)F)c2)CCO1` (racemic) [compound 035, rac-3-[4-[3-(trifluoromethyl)phenyl]sulfonylmorpholin-2-yl]benzothiophene-2-carboxamide], the EC50 was < 1 µM. With `N#Cc1ccc(S(=O)(=O)N2CCOC(c3c(C(N)=O)sc4ccccc34)C2)cc1` (racemic) [compound 037, rac-3-[4-(4-cyanophenyl)sulfonylmorpholin-2-yl]benzothiophene-2-carboxamide] the figure was > 2 µM; with `CC(C)(C)c1ccc(S(=O)(=O)N2CCOC(c3c(C(N)=O)sc4ccccc34)C2)cc1` (racemic) [compound 036, rac-3-[4-(4-tert-butylphenyl)sulfonylmorpholin-2-yl]benzothiophene-2-carboxamide], < 1 µM.

These data come from patent US12391680B2, “Compounds and compositions for the treatment of cystic fibrosis” (FONDAZIONE ISTITUTO ITALIANO DI TECNOLOGIA, priority 2019, dated 2025).
